# Test results reported in patent publication US20260285888A1, “HETEROCYCLIC COMPOUND AND USE THEREOF” (OTSUKA PHARMACEUTICAL CO., LTD., priority 2023, published 2026).
# Assay: in vitro
# Format: cell-based, human
# Settings: human, differentiated hl-60 cells, 300 μmol/L, about 24 hours, PMA-differentiated HL-60 cells, LDH; no-treatment 0%, cell lysis buffer 100%; read-out: cytotoxicity (%) Evaluation compound results
# Description: An HL-60 cell line (human acute promyelocytic leukemia cells) was successively cultured in RPMI 1640 containing 20% fetal bovine serum (FBS) at 37° C. in 95% atmosphere/5% CO2. Before evaluation, the cells were pre-cultured for about 72 hours in the presence of 10 nM phorbol 12-myristate 13-acetate (PMA) to induce macrophage-like differentiation.
# Evaluation compounds were dissolved in DMSO to obtain 30 mmol/L solutions (or suspensions). Each DMSO solution was diluted 100-fold with RPMI 1640 containing 2% FBS (final concentration of the compound: 300 μmol/L) to obtain a treatment solution. The culture supernatant of the differentiated HL-60 cells was removed, and each treatment solution was added and cultured for about 24 hours, followed by cytotoxicity evaluation.
# The activity of lactate dehydrogenase (LDH) was measured in the treatment solutions exposed to the cells for about 24 hours by using a commercial kit (Cytotoxicity LDH Assay Kit-WST, Dojindo Laboratories) and a plate reader (Tecan Infinite M1000). The obtained measurement values were used to calculate cytotoxicity (%) as comparison values for each evaluation compound-treated group, with the no-treatment group taken as 0% and the cell lysis buffer-treated group taken as 100%. The test was conducted in triplicate in three wells each, and the average values were used as adopted values.
row,SMILES,"cytotoxicity at 24 h, 300 µM"
1,"COCC(=O)OCOP(=O)([O-])OC[N+]1(CCCCOc2ccc3ccc(=O)[nH]c3c2)CCN(c2cccc3sccc23)CC1 [EX 30, (4-(benzo[b]thiophen-4-yl)-1-(4-((2-oxo-1,2-dihydroquinolin-7-yl)oxy)butyl)piperazin-1-ium-1-yl)methyl ((2-methoxyacetoxy)methyl) phosphate]",14%
2,"CCOCC(=O)OCOP(=O)([O-])OC[N+]1(CCCCOc2ccc3ccc(=O)[nH]c3c2)CCN(c2cccc3sccc23)CC1 [EX 31, (4-(benzo[b]thiophen-4-yl)-1-(4-((2-oxo-1,2-dihydroquinolin-7-yl)oxy)butyl)piperazin-1-ium-1-yl)methyl ((2-ethoxyacetoxy)methyl) phosphate]",-8%
3,"CC(C)=CCC/C(C)=C\COP(=O)([O-])OC[N+]1(CCCCOc2ccc3ccc(=O)[nH]c3c2)CCN(c2cccc3sccc23)CC1 [EX 38, (Z)-(4-(benzo[b]thiophen-4-yl)-1-(4-((2-oxo-1,2-dihydroquinolin-7-yl)oxy)butyl)piperazin-1-ium-1-yl)methyl (3,7-dimethylocta-2,6-dien-1-yl) phosphate]",0%
4,"CC(C)=CCC/C(C)=C/COP(=O)([O-])OC[N+]1(CCCCOc2ccc3ccc(=O)[nH]c3c2)CCN(c2cccc3sccc23)CC1 [EX 39, (E)-(4-(benzo[b]thiophen-4-yl)-1-(4-((2-oxo-1,2-dihydroquinolin-7-yl)oxy)butyl)piperazin-1-ium-1-yl)methyl (3,7-dimethylocta-2,6-dien-1-yl) phosphate]",2%
5,"CCOC(=O)CCCCCOP(=O)([O-])OC[N+]1(CCCCOc2ccc3ccc(=O)[nH]c3c2)CCN(c2cccc3sccc23)CC1 [EX 61, (4-(benzo[b]thiophen-4-yl)-1-(4-((2-oxo-1,2-dihydroquinolin-7-yl)oxy)butyl)piperazin-1-ium-1-yl)methyl (6-ethoxy-6-oxohexyl) phosphate]",5%
6,"O=C(O)CCOP(=O)([O-])OC[N+]1(CCCCOc2ccc3ccc(=O)[nH]c3c2)CCN(c2cccc3sccc23)CC1 [EX 112, (4-(benzo[b]thiophen-4-yl)-1-(4-((2-oxo-1,2-dihydroquinolin-7-yl)oxy)butyl)piperazin-1-ium-1-yl)methyl (2-carboxyethyl) phosphate]",-7%

# Assay: Study for confirmation of conversion to brexpiprazole in a buffer (stability of the evaluation compounds)
# Format: physicochemical
# Settings: Tris-hydrochloric acid buffer pH 7.5, 37° C., 60 minutes, 1 μmol/L
# Description: The conversion from the evaluation compounds to brexpiprazole in a buffer (i.e., the stability of the evaluation compounds) was evaluated.
# The Example 1 compound was dissolved in acetonitrile/water (1:1, v/v) to 10 mmol/L and further diluted with acetonitrile/water (1:1, v/v) to 100 μmol/L for use.
# The other Example compounds and the Reference Example 5 compound to Reference Example 7 compound were each dissolved in DMSO to 10 mmol/L and further diluted with acetonitrile to 100 μmol/L for use, except for the following compounds.
# The compounds of Examples 52, 95, 96, 117, and 130 (EX 52, EX 95, EX 96, EX 117, and EX 130) were dissolved in acetonitrile/water (8:2, v/v) to 10 mmol/L and further diluted with acetonitrile to 100 μmol/L for use.
# The compound of Example 97 (EX 97) was dissolved in acetonitrile/water (8:2, v/v) to 10 mmol/L and further diluted with acetonitrile/water (8:2, v/v) to 100 μmol/L for use.
# The compounds of Examples 15 and 116 (EX 15 and EX 116) were dissolved in DMSO to 1 mmol/L and further diluted with acetonitrile to 100 μmol/L for use.
# The reaction was conducted by preparing each reaction solution such that the final concentration of each component was as follows. The test was conducted in duplicate.
# For the compounds of Examples 1 to 8, 10 to 19, 26 to 27, 37, 50, 87 to 89, 91, 116, 121, 123, 150, and 151 (EX 1 to EX 8, EX 10 to EX 19, EX 26 to EX 27, EX 37, EX 50, EX 87 to EX 89, EX 91, EX 116, EX 121, EX 123, EX 150, and EX 151), and the compounds of Reference Examples 5 to 7 (REX 5 to REX 7), the reaction solution without the evaluation compound (198 μl) was pre-incubated at 37° C. for 3 minutes, and then each of the evaluation compound solutions (2 μl) was added and stirred; thereafter, the reaction was started at 37° C. At 0 minutes or 60 minutes after the start of the reaction, the reaction was stopped by adding and stirring a reaction stop solution (1000 μl) composed of acetonitrile/isopropanol (4:1, v/v) containing internal standard substances. However, the 0-minute reaction sample (198 μl) was prepared by adding the evaluation compound (2 μl) after adding the reaction stop solution (1000 μl). The samples after stopping the reaction were used as the measurement samples. Calibration curve samples with the same composition were prepared (final concentrations of the evaluation compounds and brexpiprazole: 0.01, 0.1, and 1 μmol/L, with the proviso that for the evaluation compounds only, the 0-minute reaction samples were also used as calibration curve samples for 1 μmol/L).
# For the compounds of Examples 24 to 25, 28 to 29, 32 to 36, 40 to 49, 51 to 60, 62 to 64, 66 to 77, 80 to 86, 90, 92 to 111, 113, 115, 117 to 120, 122, 124 to 130, 132 to 147, and 152 to 160 (EX 24 to EX 25, EX 28 to EX 29, EX 32 to EX 36, EX 40 to EX 49, EX 51 to EX 60, EX 62 to EX 64, EX 66 to EX 77, EX 80 to EX 86, EX 90, EX 92 to EX 111, EX 113, EX 115, EX 117 to EX 120, EX 122, EX 124 to EX 130, EX 132 to EX 147, and EX 152 to EX 160), the reaction solution without the evaluation compound (148.5 μl) was pre-incubated at 37° C. for 3 minutes, and then each of the evaluation compound solutions (1.5 μl) was added and stirred; thereafter, the reaction was started at 37° C. At 0 minutes or 60 minutes after the start of the reaction, the reaction was stopped by adding and stirring a reaction stop solution (600 μl) composed of acetonitrile/isopropanol (4:1, v/v) containing internal standard substances. However, the 0-minute reaction sample (148.5 μl) was prepared by adding the evaluation compound (1.5 μl) after adding the reaction stop solution (600 μl). The samples after stopping the reaction were used as the measurement samples. Calibration curve samples with the same composition were prepared (final concentrations of the evaluation compounds and brexpiprazole: 0.01, 0.1, and 1 μmol/L, with the proviso that for the evaluation compounds only, the 0-minute reaction samples were also used as calibration curve samples for 1 μmol/L). […]
row,stability in the buffer / conversion to brexpiprazole (in words),SMILES
1,clearly degraded to brexpiprazole,"CCC(=O)OC[N+]1(CCCCOc2ccc3ccc(=O)[nH]c3c2)CCN(c2cccc3sccc23)CC1 [Reference Example 5, reference compound]"
2,clearly degraded to brexpiprazole,"CCCCCC(=O)OC[N+]1(CCCCOc2ccc3ccc(=O)[nH]c3c2)CCN(c2cccc3sccc23)CC1 [Reference Example 6, reference compound]"
3,clearly degraded to brexpiprazole,"CCCCCCOC(=O)OC[N+]1(CCCCOc2ccc3ccc(=O)[nH]c3c2)CCN(c2cccc3sccc23)CC1 [Reference Example 7, reference compound]"

# Same assay, conditions: in buffer; 60-minute reaction sample; average of duplicate
row,Concentration of brexpiprazole formed,SMILES
1,210 nM,"CCCCCC(=O)OC[N+]1(CCCCOc2ccc3ccc(=O)[nH]c3c2)CCN(c2cccc3sccc23)CC1.[I-] [REX 6, 4-(Benzo[b]thiophen-4-yl)-1-((hexanoyloxy)methyl)-1-(4-((2-oxo-1,2-dihydroquinolin-7-yl)oxy)butyl)piperazin-1-ium iodide, reference compound]"
2,240 nM,"CCCCCCOC(=O)OC[N+]1(CCCCOc2ccc3ccc(=O)[nH]c3c2)CCN(c2cccc3sccc23)CC1.[I-] [REX 7, 4-(Benzo[b]thiophen-4-yl)-1-((((hexyloxy)carbonyl)oxy)methyl)-1-(4-((2-oxo-1,2-dihydroquinolin-7-yl)oxy)butyl)piperazin-1-ium iodide, reference compound]"

# Same assay, conditions: in buffer; decrease in 60-minute vs 0-minute reaction sample; average of duplicate
row,Concentration of evaluation compound decreased,SMILES
1,220 nM,"CCCCCC(=O)OC[N+]1(CCCCOc2ccc3ccc(=O)[nH]c3c2)CCN(c2cccc3sccc23)CC1.[I-] [REX 6, 4-(Benzo[b]thiophen-4-yl)-1-((hexanoyloxy)methyl)-1-(4-((2-oxo-1,2-dihydroquinolin-7-yl)oxy)butyl)piperazin-1-ium iodide, reference compound]"
2,270 nM,"CCCCCCOC(=O)OC[N+]1(CCCCOc2ccc3ccc(=O)[nH]c3c2)CCN(c2cccc3sccc23)CC1.[I-] [REX 7, 4-(Benzo[b]thiophen-4-yl)-1-((((hexyloxy)carbonyl)oxy)methyl)-1-(4-((2-oxo-1,2-dihydroquinolin-7-yl)oxy)butyl)piperazin-1-ium iodide, reference compound]"
